Experimental data from ChEMBL document CHEMBL1126547, “Cardioselective anti-ischemic ATP-sensitive potassium channel openers” (J Med Chem, 1993).
Activity calls are given as the source filed them. The calls are words filed in the database; no cut-off is given here.

Assays:
[1] = species on record: Rattus norvegicus; assay: Anti-ischemic potency determined as concentration required for increase in time to contracture in globally ischemic rat hearts; format: functional
[2] = Ratio between EC25 and IC50 values was determined
[3] = species on record: Rattus norvegicus; assay: Vasorelaxant potency determined by inhibition of methoxamine-contracted rat aorta; format: functional
[4] = Plasma half-life was determined in rats; format: ADME, organism-based; settings: rat, read-out: Elimination half-life (converted)
[5] = Oral bioavailability in rat; format: ADME, organism-based; settings: in vivo
[6] = species on record: Rattus norvegicus; assay: Anti-ischemic potency determined as concentration required for increase in time to contracture in globally ischemic rat hearts 10 uM; No significant activity; format: functional

| Compound | IC50 ([3]; Rattus norvegicus, Aorta) | EC25 [1] | Ratio [2] | further results |
| --- | --- | --- | --- | --- |
| CC1(C)Oc2ccc([N+](=O)[O-])cc2[C@@H](/N=C(\NC#N)Nc2ccccc2)[C@@H]1O | 2 µM | 7.2 µM | 3.6 | – |
| CC1(C)Oc2ccc(C#N)cc2[C@@H](NC(=NC#N)Nc2ccc(Cl)cc2)[C@@H]1O | – | – | – | half-life [4]: 7 h; bioavailability [5]: 61% |
| CC1(C)Oc2ccc(C#N)cc2[C@@H](/N=C(\NC#N)Nc2ccccc2)[C@@H]1O (stereo in doubt; 12) [listing 1 of 2 here] | – | – | 4.7 | – |
| CCC(C)(C)/N=C(\NC#N)N[C@@H]1c2cc(C#N)ccc2OC(C)(C)[C@H]1O | – | 20.1 µM | 0.7 | – |
| CC1(C)Oc2ccccc2[C@@H](/N=C(\NC#N)Nc2ccccc2)[C@@H]1O | 72.7 µM | – | – | EC25 [6]: inactive |
| CC1(C)Oc2ccc(C#N)cc2[C@@H](/N=C(\NC#N)Nc2ccccc2)[C@@H]1O (stereo in doubt; 12) [listing 2 of 2 here] | – | 6.1 µM | – | half-life [4]: 1.8 h; IC50 [3]: 1.3 µM; bioavailability [5]: 70% |
| CC1(C)Oc2ccc(C#N)cc2[C@@H](NC(=O)Nc2ccccc2)[C@@H]1O | – | 5.1 µM | – | – |
| CC1(C)Oc2ccc(C#N)cc2[C@@H](/N=C(\NC#N)Nc2ccccc2)[C@@H]1O (stereo in doubt; 13) | – | >30 µM | – | IC50 [3]: 4.2 µM |
| C#Cc1ccc2c(c1)[C@@H](/N=C(\NC#N)Nc1ccccc1)[C@H](O)C(C)(C)O2 | 5.4 µM | >30 µM | – | – |
| CC1(C)Oc2ccc(C#N)cc2[C@@H](/N=C(\NC#N)Nc2ccccc2)[C@@H]1O (stereo in doubt; 5) [listing 1 of 2 here] | – | – | 7.9 | – |
| CC1(C)Oc2ccc(C#N)cc2[C@@H](/N=C(\NC#N)Nc2ccccc2)[C@@H]1O (stereo in doubt; 5) [listing 2 of 2 here] | – | 11 µM | – | – |

Continued, in another order:

| IC50 ([3]; Rattus norvegicus, Aorta) | Compound | EC25 [1] | Ratio [2] | further results |
| --- | --- | --- | --- | --- |
| 1.8 µM | CC1(C)Oc2ccc(C#N)cc2[C@@H](/N=C(\NC#N)Nc2ccc(Cl)cc2)[C@@H]1O | 2.5 µM | 1.4 | – |
| 0.032 µM | CC1(C)Oc2ccc(C#N)cc2C(N2CCCC2=O)C1O (stereo unspecified) [CROMAKALIM] | 8.9 µM | 278 | – |
| 1.4 µM | CC1(C)Oc2ccc(C#N)cc2[C@@H](/N=C(\NC#N)Nc2ccc(F)cc2)[C@@H]1O | 3.5 µM | 2.5 | half-life [4]: 1.7 h; bioavailability [5]: 64% |
| 8.1 µM | CC1(C)Oc2ccc(C#N)cc2[C@@H](/N=C(\NC#N)Nc2ccc(C(F)(F)F)cc2)[C@@H]1O | 13.4 µM | 1.7 | – |
| 1.7 µM | CC1(C)Oc2ccc(C#N)cc2[C@@H](/N=C(\S)Nc2ccccc2)[C@@H]1O | 7.7 µM | 4.5 | – |
| 2.2 µM | CC1(C)Oc2ccc(C#N)cc2[C@@H](/N=C(\NC#N)Nc2ccc(O)cc2)[C@@H]1O | 33.4 µM | 15.2 | – |
